# Results published in ChEMBL document CHEMBL1201861, “Genomics of Drug Sensitity in Cancer screening data, Wellcome Trust Sanger Institute”.
# pIC50: −log10 of the molar value.
# Key:
# Experiment in all cases: cells
# KP-N-YS = type: functional, cell-based; conditions: Homo sapiens;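 also: cell viability assay measuring inhibition of cell line growth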
# Description: SANGER: Inhibition of human KP-N-YS cell growth in a cell viability assay.
# LB1047-RCC = type: functional, cell-based, Homo sapiens; conditions: Homo sapiens, LB1047-RCC;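 also: inhibition of cell growth, determined with a cell viability assay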
# Description: SANGER: Inhibition of human LB1047-RCC cell growth in a cell viability assay.
# IST-SL1 = type: functional, cell-based, Homo sapiens; conditions: Homo sapiens, IST-SL1;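 also: growth inhibition of human IST-SL1 cells, read out with a cell viability assay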
# Description: SANGER: Inhibition of human IST-SL1 cell growth in a cell viability assay.
# RXF 393 = type: functional, cell-based; conditions: Homo sapiens;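 also: growth inhibition of human RXF 393 cells, read out with a cell viability assay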
# Description: SANGER: Inhibition of human RXF393 cell growth in a cell viability assay.
# NOS-1 = type: functional, cell-based, Homo sapiens; conditions: Homo sapiens, NOS-1;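 also: growth inhibition of the human NOS-1 cell line, read out with a cell viability assay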
# Description: SANGER: Inhibition of human NOS-1 cell growth in a cell viability assay.
# SH-4 = type: functional, cell-based, Homo sapiens; conditions: Homo sapiens, SH-4;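 also: growth inhibition of SH-4 cells, read out with a cell viability assay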
# Description: SANGER: Inhibition of human SH-4 cell growth in a cell viability assay.
# HO-1-N-1 = type: functional, cell-based, Homo sapiens; conditions: Homo sapiens, HO-1-N-1;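 also: growth inhibition of human HO-1-N-1 cells, read out with a cell viability assay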
# Description: SANGER: Inhibition of human HO-1-N-1 cell growth in a cell viability assay.
# MOLT-16 = type: functional, cell-based; conditions: Homo sapiens;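 also: growth inhibition of human MOLT-16 cells, read out with a cell viability assay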
# Description: SANGER: Inhibition of human MOLT-16 cell growth in a cell viability assay.
# ES8 = type: functional, cell-based, Homo sapiens; conditions: Homo sapiens, ES8;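 also: growth inhibition of human ES8 cells, read out with a cell viability assay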
# Description: SANGER: Inhibition of human ES8 cell growth in a cell viability assay.
# KE-37 = type: functional, cell-based; conditions: Homo sapiens;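 also: growth inhibition of KE-37 cells, read out with a cell viability assay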
# Description: SANGER: Inhibition of human KE-37 cell growth in a cell viability assay.
# HCC70 = type: functional, cell-based, Homo sapiens; conditions: Homo sapiens, HCC70;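 also: cell viability assay measuring how strongly the compound suppresses proliferation of HCC70 cells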
# Description: SANGER: Inhibition of human HCC70 cell growth in a cell viability assay.
# ML-2 = type: functional, cell-based; conditions: Homo sapiens;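 also: growth inhibition of ML-2 cells, measured with a cell viability readout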
# Description: SANGER: Inhibition of human ML-2 cell growth in a cell viability assay.
# TCC-SUP = type: functional, cell-based, Homo sapiens; conditions: Homo sapiens, TCC-SUP;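 also: growth inhibition of TCC-SUP cells, read out with a cell viability assay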
# Description: SANGER: Inhibition of human TCCSUP cell growth in a cell viability assay.
# CTV-1 = type: functional, cell-based; conditions: Homo sapiens;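 also: growth inhibition of the cell line, read out with a cell viability assay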
# Description: SANGER: Inhibition of human CTV-1 cell growth in a cell viability assay.
# MFE-280 = type: functional, cell-based, Homo sapiens; conditions: Homo sapiens, MFE-280;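 also: growth inhibition of MFE-280 cells, determined with a cell viability readout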
# Description: SANGER: Inhibition of human MFE-280 cell growth in a cell viability assay.
# NCI-H226 = type: functional, cell-based, Homo sapiens; conditions: Homo sapiens, NCI-H226;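 also: cell viability read-out used to gauge growth inhibition of the cells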
# Description: SANGER: Inhibition of human NCI-H226 cell growth in a cell viability assay.
# CWR22R = type: functional, cell-based, Homo sapiens; conditions: Homo sapiens, 22Rv1;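 also: growth inhibition of 22Rv1 cells, read out with a cell viability assay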
# Description: SANGER: Inhibition of human 22RV1 cell growth in a cell viability assay.
# IGROV-1 = type: functional, cell-based, Homo sapiens; conditions: Homo sapiens, IGROV-1;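 also: reduction of IGROV-1 cell growth, read out with a viability assay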
# Description: SANGER: Inhibition of human IGROV-1 cell growth in a cell viability assay.
# DMS-273 = type: functional, cell-based, Homo sapiens; conditions: Homo sapiens, DMS-273
# Description: SANGER: Inhibition of human DMS-273 cell growth in a cell viability assay.
# VA-ES-BJ = type: functional, cell-based, Homo sapiens; conditions: Homo sapiens, VA-ES-BJ;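 also: growth inhibition of the VA-ES-BJ cell line, read out by a cell viability assay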
# Description: SANGER: Inhibition of human VA-ES-BJ cell growth in a cell viability assay.
# NOMO-1 = type: functional, cell-based; conditions: Homo sapiens;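 also: growth inhibition of human NOMO-1 cells measured by a cell viability assay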
# Description: SANGER: Inhibition of human NOMO-1 cell growth in a cell viability assay.
# HH = type: functional, cell-based; conditions: Homo sapiens
# Description: SANGER: Inhibition of human HH cell growth in a cell viability assay.
# MZ1-PC = type: functional, cell-based, Homo sapiens; conditions: Homo sapiens, MZ1-PC;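 also: cell viability assay measuring growth inhibition of human MZ1-PC cells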
# Description: SANGER: Inhibition of human MZ1-PC cell growth in a cell viability assay.
# SKG-IIIa = type: functional, cell-based, Homo sapiens; conditions: Homo sapiens, SKG-IIIa;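 also: cell growth inhibition, read out with a cell viability assay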
# Description: SANGER: Inhibition of human SKG-IIIa cell growth in a cell viability assay.
# MPP-89 = type: functional, cell-based, Homo sapiens; conditions: Homo sapiens, MPP-89;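 also: growth inhibition of human MPP-89 cells, read out with a cell viability assay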
# Description: SANGER: Inhibition of human MPP-89 cell growth in a cell viability assay.
# MeWo = type: functional, cell-based, Homo sapiens; conditions: Homo sapiens, MeWo;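 also: growth inhibition of MeWo cells, determined by a cell viability readout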
# Description: SANGER: Inhibition of human Mewo cell growth in a cell viability assay.
# LB2518-MEL = type: functional, cell-based, Homo sapiens; conditions: Homo sapiens, LB2518-MEL;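 also: growth inhibition of human LB2518-MEL cells, measured with a cell viability assay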
# Description: SANGER: Inhibition of human LB2518-MEL cell growth in a cell viability assay.
# HuP-T3 = type: functional, cell-based, Homo sapiens; conditions: Homo sapiens, HuP-T3;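 also: HuP-T3 cell growth inhibition, read out with a cell viability assay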
# Description: SANGER: Inhibition of human HuP-T3 cell growth in a cell viability assay.
# EW-13 = type: functional, cell-based; conditions: Homo sapiens;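 also: growth inhibition of EW-13 cells, read out with a cell viability assay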
# Description: SANGER: Inhibition of human EW-13 cell growth in a cell viability assay.
# OCUB-M = type: functional, cell-based, Homo sapiens; conditions: Homo sapiens, OCUB-M;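 also: growth inhibition of the cancer cell line, read out through a cell viability assay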
# Description: SANGER: Inhibition of human OCUB-M cell growth in a cell viability assay.
# 8-MG-BA = type: functional, cell-based, Homo sapiens; conditions: Homo sapiens, 8-MG-BA;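 also: growth inhibition of 8-MG-BA cells, read out with a cell viability assay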
# Description: SANGER: Inhibition of human 8-MG-BA cell growth in a cell viability assay.
# UO-31 = type: functional, cell-based; conditions: Homo sapiens;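 also: cell viability assay measuring inhibition of cell growth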
# Description: SANGER: Inhibition of human U031 cell growth in a cell viability assay.
# MLMA = type: functional, cell-based, Homo sapiens; conditions: Homo sapiens, MLMA;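 also: growth inhibition of MLMA cells (human), determined through a cell viability readout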
# Description: SANGER: Inhibition of human MLMA cell growth in a cell viability assay.
# NCI-H292 = type: functional, cell-based, Homo sapiens; conditions: Homo sapiens, NCI-H292;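 also: growth inhibition of NCI-H292 cells, read out with a cell viability assay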
# Description: SANGER: Inhibition of human NCI-H292 cell growth in a cell viability assay.
# MC116 = type: functional, cell-based; conditions: Homo sapiens;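 also: growth inhibition of MC116 cells, read out with a cell viability assay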
# Description: SANGER: Inhibition of human MC116 cell growth in a cell viability assay.
# WM-115 = type: functional, cell-based, Homo sapiens; conditions: Homo sapiens, WM-115
# Description: SANGER: Inhibition of human WM-115 cell growth in a cell viability assay.
# CHP-212 = type: functional, cell-based, Homo sapiens; conditions: Homo sapiens, CHP-212
# Description: SANGER: Inhibition of human CHP-212 cell growth in a cell viability assay.
# COR-L105 = type: functional, cell-based, Homo sapiens; conditions: Homo sapiens, COR-L105;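 also: cell growth inhibition determined with a viability assay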
# Description: SANGER: Inhibition of human COR-L105 cell growth in a cell viability assay.
# HCC38 = type: functional, cell-based, Homo sapiens; conditions: Homo sapiens, HCC38;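 also: cell viability assay on the human HCC38 cell line, with IC50 marking the concentration that inhibits cell growth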
# Description: SANGER: Inhibition of human HCC38 cell growth in a cell viability assay.
# KGN = type: functional, cell-based, Homo sapiens; conditions: Homo sapiens, KGN;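 also: growth inhibition of KGN cells, read out with a cell viability assay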
# Description: SANGER: Inhibition of human KGN cell growth in a cell viability assay.
# KS-1 = type: functional, cell-based, Homo sapiens; conditions: Homo sapiens, KS-1;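 also: growth inhibition of KS-1 cells, read out with a cell viability assay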
# Description: SANGER: Inhibition of human KS-1 cell growth in a cell viability assay.
# KARPAS-45 = type: functional, cell-based; conditions: Homo sapiens;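 also: inhibition of cell line growth, read out through a viability assay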
# Description: SANGER: Inhibition of human KARPAS-45 cell growth in a cell viability assay.
# SiHa = type: functional, cell-based, Homo sapiens; conditions: Homo sapiens, SiHa;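 also: Viability-based readout of growth inhibition in SiHa cells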
# Description: SANGER: Inhibition of human SiHa cell growth in a cell viability assay.
# SF-295 = type: functional, cell-based, Homo sapiens; conditions: Homo sapiens, SF-295; read-out: IC50;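 also: growth inhibition of SF-295 cells, read out with a cell viability assay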
# Description: SANGER: Inhibition of human SF295 cell growth in a cell viability assay.
# OS-RC-2 = type: functional, cell-based, Homo sapiens; conditions: Homo sapiens, OS-RC-2;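 also: growth inhibition of human OS-RC-2 cells, measured by a cell viability assay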
# Description: SANGER: Inhibition of human OS-RC-2 cell growth in a cell viability assay.
# U-118-MG = type: functional, cell-based, Homo sapiens; conditions: Homo sapiens, U-118-MG
# Description: SANGER: Inhibition of human U-118-MG cell growth in a cell viability assay.
# 5637 = type: functional, cell-based, Homo sapiens; conditions: Homo sapiens
# Description: SANGER: Inhibition of human 5637 cell growth in a cell viability assay.
# KOSC-2 = type: functional, cell-based, Homo sapiens; conditions: Homo sapiens, KOSC-2;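 also: growth inhibition of KOSC-2 cells, read out by a cell viability assay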
# Description: SANGER: Inhibition of human KOSC-2 cell growth in a cell viability assay.
# KU812 cell line = type: functional, cell-based; conditions: Homo sapiens;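 also: growth inhibition of KU812 cells, read out with a cell viability assay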
# Description: SANGER: Inhibition of human KU812 cell growth in a cell viability assay.
# OVCAR-4 = type: functional, cell-based, Homo sapiens; conditions: Homo sapiens, OVCAR-4;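 also: growth inhibition of human OVCAR-4 cells, measured with a cell viability assay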
# Description: SANGER: Inhibition of human OVCAR-4 cell growth in a cell viability assay.
# SNU-449 = type: functional, cell-based, Homo sapiens; conditions: Homo sapiens, SNU-449
# Description: SANGER: Inhibition of human SNU-449 cell growth in a cell viability assay.
smiles,measurement,setting,value
COc1ccc(-c2ccc3c(N4CCOC[C@@H]4C)nc(N4CCOC[C@@H]4C)nc3n2)cc1CO [AZD-8055],pIC50,KP-N-YS,6.37
same,pIC50,LB1047-RCC,6.47
same,pIC50,IST-SL1,< 5.70
same,pIC50,RXF 393,6.03
same,pIC50,NOS-1,6.39
same,pIC50,SH-4,5.96
same,pIC50,HO-1-N-1,6.17
same,pIC50,MOLT-16,6.03
same,pIC50,ES8,6.44
same,pIC50,KE-37,6.36
same,pIC50,HCC70,< 5.70
same,pIC50,ML-2,6.23
same,pIC50,TCC-SUP,5.83
same,pIC50,CTV-1,7.06
same,pIC50,MFE-280,6.37
same,pIC50,NCI-H226,< 5.70
same,pIC50,CWR22R,6.15
same,pIC50,IGROV-1,6.17
same,pIC50,DMS-273,6.11
same,pIC50,VA-ES-BJ,6.47
same,pIC50,NOMO-1,< 5.70
same,pIC50,HH,7.10
same,pIC50,MZ1-PC,< 5.70
same,pIC50,SKG-IIIa,5.88
same,pIC50,MPP-89,6.33
same,pIC50,MeWo,5.96
same,pIC50,LB2518-MEL,< 5.70
same,pIC50,HuP-T3,< 5.70
same,pIC50,EW-13,< 5.70
same,pIC50,OCUB-M,6.08
same,pIC50,8-MG-BA,5.70
same,pIC50,UO-31,< 5.70
same,pIC50,MLMA,< 5.70
same,pIC50,NCI-H292,6.54
same,pIC50,MC116,< 5.70
same,pIC50,WM-115,6.16
same,pIC50,CHP-212,6.36
same,pIC50,COR-L105,< 5.70
same,pIC50,HCC38,< 5.70
same,pIC50,KGN,6.21
same,pIC50,KS-1,5.90
same,pIC50,KARPAS-45,7.47
same,pIC50,SiHa,< 5.70
same,pIC50,SF-295,6.16
same,pIC50,OS-RC-2,5.97
same,pIC50,U-118-MG,5.73
same,pIC50,5637,5.75
same,pIC50,KOSC-2,5.97
same,pIC50,KU812 cell line,7.09
same,pIC50,OVCAR-4,6.09
same,pIC50,SNU-449,6.02
COc1ccc(C2=N[C@@H](c3ccc(Cl)cc3)[C@@H](c3ccc(Cl)cc3)N2C(=O)N2CCNC(=O)C2)c(OC(C)C)c1 [NUTLIN-3],pIC50,KP-N-YS,< 5.10
same,pIC50,LB1047-RCC,< 5.10
same,pIC50,IST-SL1,< 5.10
same,pIC50,RXF 393,< 5.10
same,pIC50,NOS-1,< 5.10
same,pIC50,SH-4,< 5.10
same,pIC50,HO-1-N-1,< 5.10
same,pIC50,MOLT-16,5.75
same,pIC50,ES8,< 5.10
same,pIC50,KE-37,< 5.10
same,pIC50,HCC70,< 5.10
same,pIC50,ML-2,5.59
same,pIC50,TCC-SUP,< 5.10
same,pIC50,CTV-1,5.39
same,pIC50,MFE-280,< 5.10
same,pIC50,NCI-H226,< 5.10
same,pIC50,CWR22R,< 5.10
same,pIC50,IGROV-1,< 5.10
same,pIC50,DMS-273,< 5.10
same,pIC50,VA-ES-BJ,5.59
same,pIC50,NOMO-1,< 5.10
same,pIC50,HH,< 5.10
same,pIC50,MZ1-PC,< 5.10
same,pIC50,SKG-IIIa,< 5.10
same,pIC50,MPP-89,< 5.10
same,pIC50,MeWo,< 5.10
same,pIC50,LB2518-MEL,< 5.10
same,pIC50,HuP-T3,< 5.10
same,pIC50,EW-13,< 5.10
same,pIC50,OCUB-M,< 5.10
same,pIC50,8-MG-BA,< 5.10
same,pIC50,UO-31,< 5.10
same,pIC50,MLMA,< 5.10
same,pIC50,NCI-H292,5.51
same,pIC50,MC116,< 5.10
same,pIC50,WM-115,5.16
same,pIC50,CHP-212,5.74
same,pIC50,COR-L105,< 5.10
same,pIC50,HCC38,< 5.10
same,pIC50,KGN,5.51
same,pIC50,KS-1,5.52
same,pIC50,KARPAS-45,< 5.10
same,pIC50,SiHa,< 5.10
same,pIC50,SF-295,< 5.10
same,pIC50,OS-RC-2,5.24
same,pIC50,U-118-MG,< 5.10
same,pIC50,5637,< 5.10
same,pIC50,KOSC-2,< 5.10
same,pIC50,KU812 cell line,< 5.10
same,pIC50,OVCAR-4,< 5.10
same,pIC50,SNU-449,< 5.10
